Measurements published in patent publication US9497970B2, “Pesticide compounds” (priority 2013, dated 2016).

Assays:
Format in all cases: in vivo
[1] = system: Vetch Aphid (Megoura viciae); assay: B.8 Vetch Aphid (Megoura viciae), broad bean leaf disks; conditions: foliar, 120 h, 2500 ppm, adult aphids on sprayed leaf disks, 5 days, in comparison with untreated controls, read-out: mortality
Experimental: B.8 Vetch Aphid (Megoura viciae)
For evaluating control of vetch aphid (Megoura viciae) through contact or systemic means the test unit consisted of 24-well-microtiter plates containing broad bean leaf disks.
The compounds were formulated using a solution containing 75% v/v water and 25% v/v DMSO. Different concentrations of formulated compounds were sprayed onto the leaf disks at 2.5 μl, using a custom built micro atomizer, at two replications.
After application, the leaf disks were air-dried and 5-8 adult aphids placed on the leaf disks inside the microtiter plate wells. The aphids were then allowed to suck on the treated leaf disks and incubated at about 23±1° C. and about 50±5% relative humidity for 5 days. Aphid mortality and fecundity was then visually assessed.

[2] = system: Boll Weevil (Anthonomus grandis); assay: B.3 Boll Weevil (Anthonomus grandis), microtiter plate insect diet; conditions: 120 h, 800 ppm, sprayed onto insect diet, 5 days, in comparison with untreated controls, read-out: mortality (egg and larval)
In short: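 Compounds in 25% DMSO/water sprayed at several concentrations onto insect diet in microtiter wells holding 5–10 A. grandis eggs, two replicates. Plates kept 5 days at about 25±1 °C and 75±5% RH. Egg and larval mortality scored visually.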

[3] = system: Tobacco Budworm (Heliothis virescens); assay: B.7 Tobacco Budworm (Heliothis virescens) I, microtiter plate insect diet; conditions: 120 h, 800 ppm, sprayed onto insect diet, 5 days, in comparison with untreated controls, read-out: mortality (egg and larval)
In short: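 96-well plates with insect diet and 15-25 H. virescens eggs; compounds in 75% water/25% DMSO sprayed onto diet at several concentrations, two replicates. Plates held at about 28±1° C. and 80±5% relative humidity for 5 days, then egg and larval mortality scored visually.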

[4] = system: Diamond Back Moth (Plutella xylostella); assay: B.1 Diamond Back Moth (Plutella xylostella), cabbage leaf dip; conditions: foliar, 500 ppm, 3rd instar larvae on dipped cabbage leaves, 72 hours after treatment, in comparison with untreated controls, read-out: mortality
In short: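 Cabbage leaves dipped in compound in 1:1 water:acetone with 0.01% Kinetic HV surfactant, air-dried, then infested with ten 3rd-instar larvae on moist filter paper. Mortality scored at 72 h after treatment; feeding damage rated on a 0-100% scale.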

[5] = system: Mediterranean Fruitfly (Ceratitis capitata); assay: B.6 Mediterranean Fruitfly (Ceratitis capitata), microtiter plate insect diet; conditions: 120 h, 800 ppm, sprayed onto insect diet, 5 days, in comparison with untreated controls, read-out: mortality (egg and larval)
In short: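 Insect diet with 50-80 C. capitata eggs sprayed with compounds formulated in 75% water/25% DMSO, at different concentrations, two replications. Incubation at about 28±1° C and 80±5% relative humidity for 5 days, then egg and larval mortality assessed visually.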

[6] = system: Yellow Fever Mosquito (Aedes aegypti); assay: whole plant or invertebrate; conditions: 48 h, freshly hatched larvae in tap water, 2 days, in comparison with untreated controls, read-out: mortality (larval)
In short: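 Freshly hatched A. aegypti larvae, 5–15 per well, were held in 200 μl tap water. Compounds formulated in 75:25 water:DMSO were sprayed at various concentrations, 2.5 μl per well by micro-atomizer, in two replicates.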

[7] = system: Green Peach Aphid (Myzus persicae); assay: B.9 Green Peach Aphid (Myzus persicae), sprayed bell pepper plants; conditions: 120 h, infested bell pepper plants sprayed, after 5 days, in comparison with untreated controls
Experimental: B.9 Green Peach Aphid (Myzus persicae)
(§1) The active compounds were formulated by a Tecan liquid handler in 100% cyclohexa none as a 10,000 ppm solution supplied in tubes. The 10,000 ppm solution was serially diluted in 100% cyclohexanone to make interim solutions. These served as stock solutions for which final dilutions were made by the Tecan in 50% acetone:50% water (v/v) into 5 or 10 ml glass vials. A nonionic surfactant (Kinetic®) was included in the solution at a volume of 0.01% (v/v). The vials were then inserted into an automated electrostatic sprayer equipped with an atomizing nozzle for application to plants/insects.
Bell pepper plants at the first true-leaf stage were infested prior to treatment by placing heavily infested leaves from the main colony on top of the treatment plants. Aphids were allowed to transfer overnight to accomplish an infestation of 30-50 aphids per plant and the host leaves were removed. The infested plants were then sprayed by an automated electrostatic plant sprayer equipped with an atomizing spray nozzle. The plants were dried in the sprayer fume hood, removed, and then maintained in a growth room under fluorescent lighting in a 24-hr photoperiod at about 25° C. and about 20-40% relative humidity. Aphid mortality on the treated plants, relative to mortality on untreated control plants, was determined after 5 days.

[8] = system: Silverleaf Whitefly (Bemisia argentifoli); assay: B.5 Silverleaf Whitefly (Bemisia argentifoli), sprayed cotton plants; conditions: 72 h, whitefly adults on sprayed cotton plants, 3 days after treatment, in comparison with untreated controls
Experimental: B.5 Silverleaf Whitefly (Bemisia argentifoli)
as §1, with “cyclohexanone” for “cyclohexa none”
Cotton plants at the cotyledon stage (one plant per pot) were sprayed by an automated electrostatic plant sprayer equipped with an atomizing spray nozzle. The plants were dried in the sprayer fume hood and then removed from the sprayer. Each pot was placed into a plastic cup and about 10 to 12 whitefly adults (approximately 3-5 days old) were introduced. The insects were collected using an aspirator and a nontoxic Tygon® tubing connected to a barrier pipette tip. The tip, containing the collected insects, was then gently inserted into the soil containing the treated plant, allowing insects to crawl out of the tip to reach the foliage for feeding. Cups were covered with a reusable screened lid. Test plants were maintained in a growth room at about 25° C. and about 20-40% relative humidity for 3 days, avoiding direct exposure to fluorescent light (24 hour photoperiod) to prevent trapping of heat inside the cup. Mortality was assessed 3 days after treatment, compared to untreated control plants.

[9] = system: Orchid thrips (dichromothrips corbetti); assay: B.12 Orchid thrips (dichromothrips corbetti), floral-immersion technique; conditions: adult thrips on dipped orchid petals, 72 hours after treatment, in comparison with untreated controls
In short: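 Whole orchid flower petals were dipped in compound in 1:1 acetone:water with 0.01% v/v Kinetic HV, dried, and enclosed with about 20 adult thrips. They were held under continuous light at about 28° C. Live thrips were counted and percent mortality recorded at 72 hours.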

[10] = system: Southern Armyworm (Spodoptera eridania), 2nd Instar Larvae; assay: B.10 Southern Armyworm (Spodoptera eridania), 2nd Instar Larvae, sprayed lima bean plants; conditions: 96 h, 300 ppm, larvae on sprayed lima bean plants, 4 days after treatment, in comparison with untreated controls, read-out: mortality
Experimental: B.10 Southern Armyworm (Spodoptera eridania), 2nd Instar Larvae
as §1, with “cyclohexanone” for “cyclohexa none”
Lima bean plants (variety Sieva) were grown 2 plants to a pot and selected for treatment at the 1st true leaf stage. Test solutions were sprayed onto the foliage by an automated electrostatic plant sprayer equipped with an atomizing spray nozzle. The plants were dried in the sprayer fume hood and then removed from the sprayer. Each pot was placed into perforated plastic bags with a zip closure. About 10 to 11 armyworm larvae were placed into the bag and the bags zipped closed. Test plants were maintained in a growth room at about 25° C. and about 20-40% relative humidity for 4 days, avoiding direct exposure to fluorescent light (24 hour photoperiod) to prevent trapping of heat inside the bags. Mortality and reduced feeding were assessed 4 days after treatment, compared to untreated control plants.

Fc1ccc(NC(=S)N/N=C/c2ccc3c(ccc4c3ncn4-c3ccc(OC(F)(F)F)cc3)c2)c(F)c1 [C-5, 1-(2,4-difluorophenyl)-3-[(E)-[3-[4-(trifluoromethoxy)phenyl]benzo[e]benzimidazol-7-yl]methyleneamino] thiourea]
≥ 75%: mortality at 2500 ppm [1] | mortality at 800 ppm [2] | mortality at 800 ppm [3] | mortality at 500 ppm [4] | mortality at 800 ppm [5]

FC(F)(F)Oc1ccc(-c2onc3c2CCc2cc(/C=N/NC(=S)Nc4cc(C(F)(F)F)ccc4Cl)ccc2-3)cc1 [C-18, 1-[2-chloro-5-(trifluoromethyl)phenyl]-3-[(E)-[3-[4-(trifluoromethoxy)phenyl]-4,5-dihydrobenzo[g][2,1]benzoxazol-7-yl]methyleneamino]thiourea]
≥ 75%: mortality at 2500 ppm [1]

CC(C)c1ccccc1N1C(=O)CS/C1=N\N=C\c1ccc2c(ccc3c2ncn3-c2ccc(OC(F)(F)F)cc2)c1 [C-51]
≥ 75%: mortality at 800 ppm [2] | mortality at 800 ppm [3] | mortality at 500 ppm [4] | mortality at 800 ppm [6] | mortality at 800 ppm [7] | mortality at 300 ppm [8] | mortality at 500 ppm [9] | mortality at 300 ppm [10] | mortality at 800 ppm [5]

CS/C(=N\N=C\c1ccc2c(ccc3c2ncn3-c2ccc(OC(F)(F)F)cc2)c1)Nc1ccccc1C(C)C [C-52, (1Z,N′E)-methyl N-2-isopropylphenyl-N′-((3-(4-(trifluoromethoxy)phenyl)-3H-naphtho[1,2-d]imidazol-7-yl)methylene)carbamohydrazonothioate]
≥ 75%: mortality at 800 ppm [2] | mortality at 800 ppm [3] | mortality at 500 ppm [4] | mortality at 800 ppm [7] | mortality at 300 ppm [8] | mortality at 500 ppm [9] | mortality at 300 ppm [10] | mortality at 800 ppm [5]

CCc1cccc(CC)c1NC(=S)N/N=C/c1ccc2c(ccc3c2ncn3-c2ccc(OC(F)(F)F)cc2)c1 [C-70, 1-(2,6-diethylphenyl)-3-[(E)-[3-[4-(trifluoromethoxy)phenyl]benzo[e]benzimidazol-7-yl]methyleneamino] thiourea]
≥ 75%: mortality at 800 ppm [2] | mortality at 800 ppm [3] | mortality at 500 ppm [4] | mortality at 800 ppm [6] | mortality at 800 ppm [7] | mortality at 300 ppm [8] | mortality at 500 ppm [9] | mortality at 300 ppm [10]

Cc1cccc(C)c1NC(=S)N/N=C/c1ccc2c(ccc3c2ncn3-c2ccc(SC(F)(F)F)cc2)c1 [C-75, 1-(2,6-dimethylphenyl)-3-[(E)-[3-[4-(trifluoromethylsulfanyl)phenyl]benzo[e]benzimidazol-7-yl]methyleneamino] thiourea]
≥ 75%: mortality at 800 ppm [2] | mortality at 800 ppm [3] | mortality at 500 ppm [4] | mortality at 800 ppm [6] | mortality at 800 ppm [7] | mortality at 300 ppm [8] | mortality at 500 ppm [9] | mortality at 300 ppm [10] | mortality at 800 ppm [5]

CCc1cccc(C)c1NC(=S)N/N=C/c1ccc2c(ccc3c2ncn3-c2ccc(SC(F)(F)F)cc2)c1 [C-76, 1-(2-ethyl-6-methyl-phenyl)-3-[(E)-[3-[4-(trifluoromethylsulfanyl)phenyl]benzo[e]benzimidazol-7-yl]methyleneamino]thiourea]
≥ 75%: mortality at 800 ppm [2] | mortality at 800 ppm [3] | mortality at 500 ppm [4] | mortality at 800 ppm [6] | mortality at 800 ppm [7] | mortality at 300 ppm [8] | mortality at 500 ppm [9] | mortality at 300 ppm [10] | mortality at 800 ppm [5]

Cc1cccc(Cl)c1NC(=S)N/N=C/c1ccc2c(ccc3c2ncn3-c2ccc(C(F)(F)F)cc2)c1 [C-77, 1-(2-chloro-6-methyl-phenyl)-3-[(E)-[3-[4-(trifluoromethyl)phenyl]benzo[e]benzimidazol-7-yl]methyleneamino] thiourea]
≥ 75%: mortality at 800 ppm [2] | mortality at 800 ppm [3] | mortality at 500 ppm [4] | mortality at 800 ppm [6] | mortality at 800 ppm [7] | mortality at 300 ppm [8] | mortality at 500 ppm [9] | mortality at 300 ppm [10] | mortality at 800 ppm [5]

CSc1cccc(C)c1NC(=S)N/N=C/c1ccc2c(ccc3c2ncn3-c2ccc(OC(F)(F)F)cc2)c1 [C-103, 1-(2-methyl-6-methylsulfanyl-phenyl)-3-[(E)-[3-[4-(trifluoromethoxy)phenyl]benzo[e]benzimidazol-7-yl]methyleneamino]thiourea]
≥ 75%: mortality at 800 ppm [2] | mortality at 800 ppm [3] | mortality at 500 ppm [4] | mortality at 800 ppm [6] | mortality at 300 ppm [8] | mortality at 500 ppm [9] | mortality at 300 ppm [10] | mortality at 800 ppm [5]

Cc1ccc(-n2cnc3c4ccc(/C=N/NC(=S)Nc5c(C)cccc5C)cc4ccc32)cc1 [C-105, 1-(2,6-dimethylphenyl)-3-[(E)-[3-(p-tolyl)benzo[e]benzimidazol-7-yl]methyleneamino]thiourea]
≥ 75%: mortality at 2500 ppm [1] | mortality at 800 ppm [2] | mortality at 800 ppm [5]

Cc1cccc(C)c1NC(=S)N/N=C/c1ccc2c(ccc3c2ncn3-c2ccc(C(F)(F)F)cn2)c1 [C-109, 1-(2,6-dimethylphenyl)-3-[(E)-[3-[5-(trifluoromethyl)-2-pyridyl]benzo[e]benzimidazol-7-yl]methyleneamino] thiourea]
≥ 75%: mortality at 800 ppm [2] | mortality at 800 ppm [3] | mortality at 500 ppm [4] | mortality at 800 ppm [6] | mortality at 800 ppm [7] | mortality at 300 ppm [8] | mortality at 800 ppm [5]
